How the values were obtained:
Alternaria solani = assay: Example B-13: Alternaria solani / tomato / leaf disc (comparative); format: in vivo; settings: 4 dpi
Experimental: Alternaria solani/Tomato/Leaf Disc (Early Blight) Tomato leaf disks were placed on water agar in multiwell plates (24-well format) and sprayed with test solutions. After drying, the leaf disks were inoculated with a spore suspension of the fungus. After appropriate incubation the activity of a compound was assessed 4 dpi (days after inoculation) as preventive fungicidal activity.

[1] = tested on: Phaeosphaeria nodorum (Septoria nodorum); assay: Example B-11: Phaeosphaeria nodorum / wheat / leaf disc preventative (comparative); format: in vivo; settings: 4 dpi
Experimental: (§1) Phaeosphaeria nodorum (Septoria nodorum)/Wheat/Leaf Disc Preventative (Glume Blotch) Wheat leaf segments were placed on agar in a multiwell plate (24-well format) and sprayed with test solutions. After drying, the leaf disks were inoculated with a spore suspension of the fungus. After appropriate incubation the activity of a compound was assessed 4 dpi (days after inoculation) as preventive fungicidal activity.

[2] = tested on: Mycosphaerella praminicola (Seotoria tritici); assay: Example B-16: Mycosphaerella graminicola (Septoria tritici) / liquid culture (comparative); format: cell-based; settings: 96 h, 24° C., photometric after 4 days, read-out: inhibition of growth
Experimental: Mycosphaerella praminicola (Seotoria tritici)/Liquid Culture (Septoria Blotch) Conidia of the fungus from cryogenic storage were directly mixed into nutrient broth (PDB potato dextrose broth). After placing a (DMSO) solution of the test compounds into a microtiter plate (96-well format) the nutrient broth containing the fungal spores was added. The test plates were incubated at 24° C. and the inhibition of growth is measured photometrically after 4 days.

[3] = tested on: Erysiphe graminis f. sp. tritici; assay: Example B-5: Action against Erysiphe graminis f. sp. tritici (wheat powdery mildew), wheat leaf segments; format: in vivo; settings: Blumeria graminis, foliar, 168 h, 0.02% active ingredient, 7 days after inoculation, read-out: preventive fungicidal activity (inhibition)
Experimental: Action Against Erysiphe graminis f. sp. tritici (Wheat Powdery Mildew) Wheat leaf segments were placed on agar in multiwell plates (24-well format) and sprayed with test solutions (0.02% active ingredient). After drying, the leaf disks were inoculated with a spore suspension of the fungus. After appropriate incubation the activity of a compound was assessed 7 days after inoculation as preventive fungicidal activity.

Botrvtis cinerea = assay: Example B-1: Action against Botrytis cinerea, fungal growth assay; format: cell-based; settings: 0.002% active ingredient, PDB broth, 24° C., photometric after 3-4 days
Experimental: (§2) Action against Botrvtis cinerea—fungal growth assay Conidia of the fungus from cryogenic storage was directly mixed into nutrient broth (PDB potato dextrose broth). After placing a (DMSO) solution of the test compounds (0.002% active ingredient) into a microtiter plate (96-well format) the nutrient broth containing the fungal spores was added. The test plates were incubated at 24° C. and the inhibition of growth was measured photometrically after 3-4 days. The activity of a compound was expressed as fungal growth inhibition (0=no growth inhibition, ratings of 80% to 99% mean good to very good inhibition, 100%=complete inhibition).

Septoria tritici = assay: Example B-3: Action against Septoria tritici, fungal growth assay; format: cell-based; settings: Zymoseptoria tritici; 0.002% active ingredient; PDB broth, 24° C., photometric after 72 hrs
Experimental: as §2, with “Action Against Septoria tritici—Fungal Growth Assay” for “Action against Botrvtis cinerea—fungal growth assay”, “storage were” for “storage was”, “was determined” for “was measured”, “after 72 hrs.” for “after 3-4 days.”

[4] = tested on: Blumeria graminis f. sp. tritici (Erysiphe graminis f. sp. tritici); assay: Example B-9: Blumeria graminis f. sp. tritici / wheat / leaf disc preventive (comparative); format: in vivo; settings: 4 dpi
Experimental: as §1, with “Blumeria graminis f. sp. tritici (Erysiphe graminis f. sp. tritici)/Wheat/Leaf” for “Phaeosphaeria nodorum (Septoria nodorum)/Wheat/Leaf”, “Preventive (Powdery mildew on wheat)” for “Preventative (Glume Blotch)”

[5] = tested on: Monopraphella nivalis (Microdochium nivale); assay: Example B-18: Monographella nivalis (Microdochium nivale) / liquid culture (comparative); format: cell-based; settings: 24° C., photometric after 4-6 days, read-out: inhibition of growth
Experimental: Monopraphella nivalis (Microdochium nivale)/Liquid Culture (Foot Rot Cereals Conidia of the fungus from cryogenic storage were directly mixed into nutrient broth (PDB potato dextrose broth). After placing a (DMSO) solution of the test compounds into a microtiter plate (96-well format) the nutrient broth containing the fungal spores was added. The test plates were incubated at 24° C. and the inhibition of growth is measured photometrically after 4-6 days.

[6] = tested on: Botryotinia fuckeliana (Botrytis cinerea); assay: Example B-14: Botryotinia fuckeliana (Botrytis cinerea) / liquid culture (comparative); format: cell-based; settings: 24° C., photometric after 3-4 days, read-out: inhibition of growth
Experimental: Botryotinia fuckeliana (Botrytis cinerea)/Liquid Culture (Gray Mould) Conidia of the fungus from cryogenic storage were directly mixed into nutrient broth. After placing a (DMSO) solution of the test compounds into a microtiter plate (96-well format) the nutrient broth containing the fungal spores was added. The test plates were incubated at 24° C. and the inhibition of growth is determined photometrically after 3-4 days.

Pyrenophora teres = assay: Example B-12: Pyrenophora teres / barley / leaf disc preventive (comparative); format: in vivo; settings: 4 dpi
Experimental: as §1, with “Pyrenophora teres/Barley/Leaf” for “Phaeosphaeria nodorum (Septoria nodorum)/Wheat/Leaf”, “Preventive (Net” for “Preventative (Glume”, “Barley” for “Wheat”

[7] = tested on: Mycosphaerella arachidis (Cercospora arachidicola); assay: Example B-2: Action against Mycosphaerella arachidis, fungal growth assay; format: cell-based; settings: 0.002% active ingredient, PDB broth, 24° C., photometric after 6-7 days
Experimental: as §2, with “Action Against Mycosphaerella arachidis (Early Leaf Spot of Groundnut; Cercospora arachidicola [fanamorph])—Fungal Growth Assay” for “Action against Botrvtis cinerea—fungal growth assay”, “storage were” for “storage was”, “after 6-7” for “after 3-4”

SMILES: CON(C(=O)c1cn(C)nc1C(F)F)C(C)c1ccc(Cl)cc1Cl (centres unmarked) [Compound 1.023]
- preventive fungicidal activity (Alternaria solani; 20 ppm): 90
- preventive fungicidal activity (Alternaria solani; 60 ppm): 100
- preventive fungicidal activity (Alternaria solani; 200 ppm): 100
- preventive fungicidal activity ([1]; 20 ppm): 70
- preventive fungicidal activity ([1]; 60 ppm): 90
- preventive fungicidal activity ([1]; 200 ppm): 90
- inhibition at 6 ppm ([2]; 6 ppm): 100%
- inhibition at 20 ppm ([2]; 20 ppm): 100%
- inhibition at 60 ppm ([2]; 60 ppm): 100%
- inhibition at 0.02 % strength [3]: ≥ 80%
- inhibition at 0.002 % strength (Botrvtis cinerea): ≥ 80%
- melting point: 135 to 141 °C
- inhibition at 0.002 % strength (Septoria tritici): ≥ 80%
- preventive fungicidal activity ([4]; 20 ppm): 90
- preventive fungicidal activity ([4]; 60 ppm): 100
- preventive fungicidal activity ([4]; 200 ppm): 100
- inhibition at 6 ppm ([5]; 6 ppm): 0%
- inhibition at 20 ppm ([5]; 20 ppm): 0%
- inhibition at 60 ppm ([5]; 60 ppm): 50%
- inhibition at 20 ppm ([6]; 20 ppm): 20%
- inhibition at 60 ppm ([6]; 60 ppm): 100%
- inhibition at 200 ppm ([6]; 200 ppm): 100%
- preventive fungicidal activity (Pyrenophora teres; 20 ppm): 100
- preventive fungicidal activity (Pyrenophora teres; 60 ppm): 100
- preventive fungicidal activity (Pyrenophora teres; 200 ppm): 100
- inhibition at 0.002 % strength [7]: ≥ 80%

Source: US8357634B2, “N-alkoxycarboxamides and their use as microbiocides” (Syngenta Crop Protection LLC, priority 2009, dated 2013)
